ChEMBL document CHEMBL1201862, “PubChem BioAssay data set” (2004)
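A five-concentration, 48-hour dose response in 96-well plates underlies each endpoint, interpolated linearly between surrounding concentrations. The concentration for 50% growth inhibition is given as GI50.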 The source made the active and inactive calls. Rule as the data show it: active = GI50 up to about 1.1 µM and inactive = higher.

What was measured:
Experiment in all cases: inhibition of tumour cell growth, NCI panel, 48 h
786-0 = system: 786-0
A498 = system: A498
A549 = system: A549
ACHN = system: ACHN
BT-549 = system: BT-549
CCRF-CEM = system: CCRF-CEM
COLO 205 = system: COLO 205
DU-145 = system: DU-145
EKVX = system: EKVX
HCC 2998 = system: HCC 2998
HCT-116 = system: HCT-116
HCT-15 = system: HCT-15
HL-60 = system: HL-60
HOP-62 = system: HOP-62
HT-29 = system: HT-29
Hs-578T = system: Hs-578T
IGROV-1 = system: IGROV-1
K562 = system: K562
KM12 = system: KM12
LOX IMVI = system: LOX IMVI
M14 = system: M14
MCF7 = system: MCF7
MDA-MB-231 = system: MDA-MB-231
MDA-MB-435 = system: MDA-MB-435
MDA-N = system: MDA-N
MOLT-4 = system: MOLT-4
Malme-3M = system: Malme-3M
NCI-H226 = system: NCI-H226
NCI-H23 = system: NCI-H23
NCI-H460 = system: NCI-H460
NCI-H522 = system: NCI-H522
NCI/ADR-RES = system: NCI/ADR-RES
OVCAR-3 = system: OVCAR-3
OVCAR-4 = system: OVCAR-4
OVCAR-5 = system: OVCAR-5
OVCAR-8 = system: OVCAR-8
PC-3 = system: PC-3
RPMI-8226 = system: RPMI-8226
RXF 393 = system: RXF 393
SF-268 = system: SF-268
SF-295 = system: SF-295
SK-MEL-28 = system: SK-MEL-28
SK-MEL-2 = system: SK-MEL-2
SK-MEL-5 = system: SK-MEL-5
SK-OV-3 = system: SK-OV-3
SN12C = system: SN12C
SNB-19 = system: SNB-19
SNB-75 = system: SNB-75
SR = system: SR
SW-620 = system: SW-620
T47D = system: T47D
TK-10 = system: TK-10
U-251 = system: U-251
UACC-257 = system: UACC-257
UACC-62 = system: UACC-62
UO-31 = system: UO-31
CAKI-1 = system: CAKI-1
SF-539 = system: SF-539

CC[N+](C)(CC)CCC(O)(c1ccccc1)c1ccccc1
GI50 (786-0): > 100 µM (inactive) | GI50 (A498): > 100 µM (inactive) | GI50 (A549): > 100 µM (inactive) | GI50 (ACHN): > 100 µM (inactive) | GI50 (BT-549): > 100 µM (inactive) | GI50 (CCRF-CEM): > 100 µM (inactive) | GI50 (COLO 205): > 100 µM (inactive) | GI50 (DU-145): > 100 µM (inactive) | GI50 (EKVX): > 100 µM (inactive) | GI50 (HCC 2998): > 100 µM (inactive) | GI50 (HCT-116): > 100 µM (inactive) | GI50 (HCT-15): > 100 µM | GI50 (HL-60): > 100 µM (inactive) | GI50 (HOP-62): > 100 µM (inactive) | GI50 (HT-29): > 100 µM (inactive) | GI50 (Hs-578T): > 100 µM (inactive) | GI50 (IGROV-1): > 100 µM (inactive) | GI50 (K562): > 100 µM (inactive) | GI50 (KM12): > 100 µM (inactive) | GI50 (LOX IMVI): > 100 µM (inactive) | GI50 (M14): > 100 µM (inactive) | GI50 (MCF7): > 100 µM (inactive) | GI50 (MDA-MB-231): > 100 µM (inactive) | GI50 (MDA-MB-435): > 100 µM (inactive) | GI50 (MDA-N): > 100 µM (inactive) | GI50 (MOLT-4): > 100 µM (inactive) | GI50 (Malme-3M): > 100 µM (inactive) | GI50 (NCI-H226): > 100 µM (inactive) | GI50 (NCI-H23): > 100 µM (inactive) | GI50 (NCI-H460): > 100 µM (inactive) | GI50 (NCI-H522): > 100 µM (inactive) | GI50 (NCI/ADR-RES): > 100 µM (inactive) | GI50 (OVCAR-3): > 100 µM (inactive) | GI50 (OVCAR-4): > 100 µM (inactive) | GI50 (OVCAR-5): > 100 µM (inactive) | GI50 (OVCAR-8): > 100 µM (inactive) | GI50 (PC-3): > 100 µM (inactive) | GI50 (RPMI-8226): > 100 µM (inactive) | GI50 (RXF 393): > 100 µM (inactive) | GI50 (SF-268): > 100 µM (inactive) | GI50 (SF-295): > 100 µM (inactive) | GI50 (SK-MEL-28): > 100 µM (inactive) | GI50 (SK-MEL-2): > 100 µM (inactive) | GI50 (SK-MEL-5): > 100 µM (inactive) | GI50 (SK-OV-3): > 100 µM (inactive) | GI50 (SN12C): > 100 µM (inactive) | GI50 (SNB-19): > 100 µM (inactive) | GI50 (SNB-75): > 100 µM (inactive) | GI50 (SR): > 100 µM (inactive) | GI50 (SW-620): > 100 µM (inactive) | GI50 (T47D): > 100 µM (inactive) | GI50 (TK-10): > 100 µM (inactive) | GI50 (U-251): > 100 µM (inactive) | GI50 (UACC-257): > 100 µM (inactive) | GI50 (UACC-62): > 100 µM (inactive) | GI50 (UO-31): > 100 µM (inactive)

COc1ccc2c(c1C)C(=O)C(O)(CC=C(C)C)O2 (stereo not drawn)
GI50 (786-0): > 100 µM (inactive) | GI50 (A498): > 100 µM (inactive) | GI50 (A549): > 100 µM (inactive) | GI50 (ACHN): > 100 µM (inactive) | GI50 (BT-549): > 100 µM (inactive) | GI50 (CAKI-1): > 100 µM (inactive) | GI50 (CCRF-CEM): > 100 µM (inactive) | GI50 (COLO 205): > 100 µM (inactive) | GI50 (DU-145): > 100 µM (inactive) | GI50 (EKVX): > 100 µM (inactive) | GI50 (HCC 2998): > 100 µM (inactive) | GI50 (HCT-116): > 100 µM (inactive) | GI50 (HCT-15): > 100 µM | GI50 (HL-60): > 100 µM (inactive) | GI50 (HOP-62): > 100 µM (inactive) | GI50 (HT-29): > 100 µM (inactive) | GI50 (Hs-578T): > 100 µM (inactive) | GI50 (IGROV-1): > 100 µM (inactive) | GI50 (K562): > 100 µM (inactive) | GI50 (KM12): > 100 µM (inactive) | GI50 (LOX IMVI): > 100 µM (inactive) | GI50 (M14): > 100 µM (inactive) | GI50 (MCF7): > 100 µM (inactive) | GI50 (MDA-MB-231): > 100 µM (inactive) | GI50 (MDA-MB-435): > 100 µM (inactive) | GI50 (MDA-N): > 100 µM (inactive) | GI50 (MOLT-4): > 100 µM (inactive) | GI50 (Malme-3M): > 100 µM (inactive) | GI50 (NCI-H226): > 100 µM (inactive) | GI50 (NCI-H23): > 100 µM (inactive) | GI50 (NCI-H460): > 100 µM (inactive) | GI50 (NCI-H522): > 100 µM (inactive) | GI50 (NCI/ADR-RES): > 100 µM (inactive) | GI50 (OVCAR-3): > 100 µM (inactive) | GI50 (OVCAR-5): > 100 µM (inactive) | GI50 (OVCAR-8): > 100 µM (inactive) | GI50 (PC-3): 62.8 µM (inactive) | GI50 (RPMI-8226): > 100 µM (inactive) | GI50 (SF-268): > 100 µM (inactive) | GI50 (SF-295): > 100 µM (inactive) | GI50 (SF-539): > 100 µM (inactive) | GI50 (SK-MEL-28): > 100 µM (inactive) | GI50 (SK-MEL-2): > 100 µM (inactive) | GI50 (SK-MEL-5): > 100 µM (inactive) | GI50 (SK-OV-3): > 100 µM (inactive) | GI50 (SN12C): > 100 µM (inactive) | GI50 (SNB-19): > 100 µM (inactive) | GI50 (SNB-75): > 100 µM (inactive) | GI50 (SR): > 100 µM (inactive) | GI50 (SW-620): > 100 µM (inactive) | GI50 (T47D): > 100 µM (inactive) | GI50 (TK-10): > 100 µM (inactive) | GI50 (U-251): > 100 µM (inactive) | GI50 (UACC-257): > 100 µM (inactive) | GI50 (UACC-62): > 100 µM (inactive) | GI50 (UO-31): > 100 µM (inactive)

CCOC(=O)c1ccc(C(=O)/C(C#N)=C2\CCCN2C)[nH]1
GI50 (786-0): > 100 µM (inactive) | GI50 (A498): > 100 µM (inactive) | GI50 (A549): > 100 µM (inactive) | GI50 (ACHN): > 100 µM (inactive) | GI50 (BT-549): > 100 µM (inactive) | GI50 (CAKI-1): > 100 µM (inactive) | GI50 (CCRF-CEM): > 100 µM (inactive) | GI50 (COLO 205): > 100 µM (inactive) | GI50 (DU-145): > 100 µM (inactive) | GI50 (EKVX): > 100 µM (inactive) | GI50 (HCC 2998): > 100 µM (inactive) | GI50 (HCT-116): > 100 µM (inactive) | GI50 (HCT-15): > 100 µM | GI50 (HL-60): > 100 µM (inactive) | GI50 (HOP-62): > 100 µM (inactive) | GI50 (HT-29): > 100 µM (inactive) | GI50 (Hs-578T): > 100 µM (inactive) | GI50 (IGROV-1): > 100 µM (inactive) | GI50 (K562): > 100 µM (inactive) | GI50 (KM12): > 100 µM (inactive) | GI50 (LOX IMVI): > 100 µM (inactive) | GI50 (M14): > 100 µM (inactive) | GI50 (MCF7): > 100 µM (inactive) | GI50 (MDA-MB-231): > 100 µM (inactive) | GI50 (MDA-MB-435): > 100 µM (inactive) | GI50 (MDA-N): > 100 µM (inactive) | GI50 (MOLT-4): > 100 µM (inactive) | GI50 (Malme-3M): > 100 µM (inactive) | GI50 (NCI-H226): > 100 µM (inactive) | GI50 (NCI-H23): > 100 µM (inactive) | GI50 (NCI-H460): > 100 µM (inactive) | GI50 (NCI-H522): > 100 µM (inactive) | GI50 (NCI/ADR-RES): > 100 µM (inactive) | GI50 (OVCAR-3): > 100 µM (inactive) | GI50 (OVCAR-4): > 100 µM (inactive) | GI50 (OVCAR-5): > 100 µM (inactive) | GI50 (OVCAR-8): > 100 µM (inactive) | GI50 (PC-3): > 100 µM (inactive) | GI50 (RPMI-8226): > 100 µM (inactive) | GI50 (RXF 393): > 100 µM (inactive) | GI50 (SF-268): > 100 µM (inactive) | GI50 (SF-295): > 100 µM (inactive) | GI50 (SK-MEL-28): > 100 µM (inactive) | GI50 (SK-MEL-2): > 100 µM (inactive) | GI50 (SK-MEL-5): > 100 µM (inactive) | GI50 (SN12C): > 100 µM (inactive) | GI50 (SNB-19): > 100 µM (inactive) | GI50 (SNB-75): > 100 µM (inactive) | GI50 (SR): > 100 µM (inactive) | GI50 (SW-620): > 100 µM (inactive) | GI50 (T47D): > 100 µM (inactive) | GI50 (TK-10): > 100 µM (inactive) | GI50 (U-251): > 100 µM (inactive) | GI50 (UACC-257): > 100 µM (inactive) | GI50 (UACC-62): > 100 µM (inactive) | GI50 (UO-31): > 100 µM (inactive)
